Laboratory results from patent US20100081668A1, “POLYMORPHS OF 5--6-CHLORO-1,3-DIHYDRO-2H-INDOL-2-ONE HYDROBROMIDE AND PROCESSES FOR PREPARATION THEREOF” (priority 2006, published 2010).
Structures can show the parent of a compound that is named as a salt. Where two headings read alike, the source gives them in different places.

Legend:
[1] = Exposure of samples to 100% relative humidity at room temperature; type: physicochemical
Excerpt: The Ziprasidone-hydrobromide Form III (hemihydrate) sample was also stable in these circumstances.

[2] = Thermogravimetric (TG) and differential scanning calorimetric (DSC) investigation during heating; type: physicochemical
Excerpt: The Ziprasidone-hydrobromide Form III (hemihydrate) sample was also stable in these circumstances. Thermogravimetry (TG) Parameters: [table] Differential Scanning Calorimetry (DSC) Parameters: [table]

[3] = Stability and water uptake from air at normal humidity; type: physicochemical; details: normal circumstances
Excerpt: During our experimental work we prepared different ziprasidone hydrobromide compounds and forms. […] In suitable circumstances both the anhydrate and the monohydrate of ziprasidone hydrobromide can be prepared in stable forms, at normal humidity these products can easily be handled, meanwhile their water and active ingredient contents remain constant. The hemihydrate of ziprasidone hydrobromide can also be prepared reproducibly.
1.69 g crystalline 5-{2-[4-(1,2-benzisothiazol-3-yl)-1-piperazinyl]-ethyl}-6-chloro-1,3-dihydro-2H-indol-2-one-hydrobromide anhydrate (ziprasidone-hydrobromide anhydrate) in a form of Ziprasidone-hydrobromide Form II was obtained.

[4] = 31% relative humidity, after 4 hours; starting water content 0.19%; cited from earlier work

O=C1Cc2cc(CCN3CCN(c4nsc5ccccc45)CC3)c(Cl)cc2N1 [Ziprasidone-hydrobromide Form I, 5-{2-[4-(1,2-benzisothiazol-3-yl)-1-piperazinyl]-ethyl}-6-chloro-1,3-dihydro-2H-indol-2-one-hydrobromide monohydrate]
stability / change of water content in 100% relative humidity area ([1]; monohydrate): does not change significantly | temperature at which water is lost during heating ([2]; TG and DSC, during heating): 40-60 °C | re-uptake of water after the heat-effect ([2]; after heating, transforms back to monohydrate of the original crystal structure): readily takes back the water

O=C1Cc2cc(CCN3CCN(c4nsc5ccccc45)CC3)c(Cl)cc2N1 [Ziprasidone-hydrobromide Form II, 5-{2-[4-(1,2-benzisothiazol-3-yl)-1-piperazinyl]-ethyl}-6-chloro-1,3-dihydro-2H-indol-2-one-hydrobromide anhydrate]
stability / change of water content in 100% relative humidity area [1]: does not change significantly | water absorption from air [3]: does not absorb water from the air

O=C1Cc2cc(CCN3CCN(c4nsc5ccccc45)CC3)c(Cl)cc2N1 [Ziprasidone-hydrobromide Form III, 5-{2-[4-(1,2-benzisothiazol-3-yl)-1-piperazinyl]-ethyl}-6-chloro-1,3-dihydro-2H-indol-2-one-hydrobromide hemihydrate]
stability / change of water content in 100% relative humidity area ([1]; hemihydrate): stable

Cl.O=C1Cc2cc(CCN3CCN(c4nsc5ccccc45)CC3)c(Cl)cc2N1 [ziprasidone hydrochloride anhydrate, reference compound]
water content after exposure to humid air [4]: 2.55% | water absorption from air [3]: adsorbed water rapidly from air
